Measurements taken from US20180209956A1, “HTS Assay for Identifying Small Molecule Inhibitors of RAD52 and Uses of Identified Small Molecule Inhibitors for Treatment and Prevention of BRCA-Deficient Malignancies” (University of Iowa Research Foundation, priority 2015, published 2018).

Legend:
[1] = biological target: T1, RPA-ssDNA interaction (Homo sapiens, UniProt P15927+P27694+P35244); experiment: FRET titration of the RPA-Cy3-dT30-Cy5 complex; assay type: binding
T1 construct: made in house
Description: Compounds ‘1’ and ‘6’ inhibit RAD52 binding to and annealing of the RPA-coated ssDNA: In the cell, ssDNA is typically found in complex with Replication protein A (RPA), which is the major eukaryotic ssDNA-binding protein essential for DNA replication, repair and recombination (Wold, 1997, Oakley and Patrick, 2010, Chen and Wold, 2014). The RPA-ssDNA complex is a natural substrate for the RDA52-mediated strand annealing. To confirm that compounds ‘1’ and ‘6’ can inhibit the RAD52 binding to and annealing of the RPA-coated ssDNA we added stoichiometric amounts of RPA (1 RPA per 30 nucleotides of ssDNA) to the FRET-based ssDNA binding/wrapping and ssDNA annealing experiments described above. RPA binds ssDNA with high affinity and extends the ssDNA to its contour length. In our assays such an extension manifests as a distinct FRET state of ˜0.3, which is readily distinguished from a FRET state of ˜0.48 of free Cy3-dT30-Cy5 ssDNA, as well as ˜0.63 FRET of the stoichiometric ssDNA-RPA-RAD52 complex (see FIG. 2 Supplement 1 and (Grimme and Spies, 2011) for details). […] Both, however, inhibited the RAD52 binding to and wrapping of RPA-coated ssDNA with IC50 values identical to those determined without RPA (FIG. 2e and FIG. 3e).
where FRET0 is the initial FRET value of RAD52-ssDNA complex in the absence of the compound and FRETmin is the FRET value at complete inhibition. FRET values were calculated as an average of three or more independent annealing reactions plotted against the concentration of the compound. Inhibition of the RAD52-dsDNA interaction was assayed in a similar experiment, except the stoichiometric complexes containing 1 nM molecules of Cy3-Oligo28-Cy5 duplex DNA and 10 nM RAD52. […] In all experiments, the FRET values for each data point were corrected for the effects of the compounds on the respective substrate in the absence of RAD52.

[2] = system: GM01604 cells; experiment: Neutral comet assay of RAD52/MUS81-dependent DSB formation; assay type: cell-based, human; conditions: for IC50 for decrease of mean tail moment following HU treatment, in words: 2 mM HU + 300 nM UCN01, 6 h
Description: Inhibiting the RAD52-ssDNA interaction interferes with RAD52/MUS81-mediated DSB formation essential for the replication fork recovery in check point deficient cells: In human cells, RAD52 may perform both limited recombination-mediator function in the RAD51-dependent pathway (Lok and Powell, 2012, Benson et al., 1998, Feng et al., 2011) as well as additional RAD51-independent roles (Lok and Powell, 2012, Murfuni et al., 2013, Mcllwraith and West, 2008). One of these HR independent roles of RAD52 involves stimulation of MUS81/EME1-dependent DSB formation at the replication forks stalled by hydroxyurea (HU) treatment in the absence of cellular checkpoints (Murfuni et al., 2013). Since the most likely targets of these MUS81/EME1/RAD52-dependent DSBs are the DNA structures produced by RAD52 (Murfuni et al., 2013), we expected this activity to depend on the RAD52-ssDNA interaction (FIG. 5a). To confirm this, we assessed DSB formation in the checkpoint deficient cells using the neutral comet assay. These assays monitor MUS81/EME1/RAD52-dependent DSB formation upon induction of replication stress by HU treatment in primary fibroblasts immortalized by hTERT expression and treated with UNC01 to inhibit CHK1 kinase (FIG. 5b). […] Importantly, these inhibitors recapitulate RAD52 depletion by inhibiting RAD52-MUS81-dependent DSBs at stalled replication forks (FIG. 5a-b). […] It also confirms our previous supposition that the target of MUS81/EME1-mediated cleavage under these conditions are indeed the structures annealed by RAD52. […] We previously reported that concomitant depletion of RAD52 and MUS81 gives raise to the MUS81-independent DSBs (Murfuni et al., 2013). […] Furthermore, accumulation of anaphase bridges, a phenotype associated with impairment of the RAD52-independent mitotic function of MUS81/EME1 was completely unaffected by inhibition of RAD52, whereas it was strongly stimulated by MUS81 silencing (FIG. 5 Supplement 1).
Neutral Comet Assay: To induce RAD52-MUS81-dependent cleavage at arrested replication forks (Murfuni et al., 2013), hTERT-immortalized wild-type human fibroblasts (GM01604) were treated with 2 mM HU and 300 nM UCN01 for 6 h, in the presence and absence of varying concentrations of ‘1’ or ‘6’. Where indicated, the GM01604 cells were cells were transfected with siRNAs directed against GFP (Ctrl), or against RAD52 (Qiagen) 48 hours prior to induction of the replication stress and/or inhibitor treatment. After that cells were subjected to neutral comet assay as described in Murfuni et al (Murfuni et al., 2013). Slides were analyzed by a computerized image analysis system (Comet IV, Perceptive UK). To assess the quantity of DNA damage, computer-generated tail moment values (tail length×fraction of total DNA in the tail) were used. Apoptotic cells (smaller comet head and extremely larger comet tail) were excluded from the analysis to avoid artificial enhancement of tail moment. A minimum of 100 cells were analyzed for each compound concentration point.

[3] = biological target: T2, RPA (Homo sapiens, UniProt P15927+P27694+P35244); experiment: WaterLOGSY NMR analysis of compound binding to RPA; conditions: 20 or 40 μM compound, 3.3 μM RPA
T2 construct: made in house
Description: Compounds ‘1’ and ‘6’ physically interact with RAD52: To confirm that the selected compounds bind RAD52, we employed water-ligand observation with gradient spectroscopy (WaterLOGSY), an NMR technique, which is based on transfer of magnetization from bulk water to the protein-bound compound of interest (Dalvit et al., 2001, Dalvit et al., 2000). In WaterLOGSY spectrum, if a compound binds to a protein, the compound will receive negative nuclear Overhauser effects (NOEs) due to the slow tumbling of the protein-compound complex, leading to a positive WaterLOGSY peak.
WaterLOGSY NMR analysis of the compound binding to RAD52 and RPA proteins: Compound binding to RAD52 and RPA proteins was analyzed using water-ligand observation with gradient spectroscopy (WaterLOGSY) NMR experiments (Dalvit et al., 2001, Dalvit et al., 2000). The WaterLOGSY spectra of compounds in the presence of RAD52 or RPA were acquired using a water NOE mixing time of 1 s and a T2 relaxation filter of 50 ms just before data acquisition to suppress the broad signals derived from protein. The protein buffer used in the experiments contains 10 mM Tris-d11, 75 mM KCl, 0.25 mM EDTA, pH 7.5, and 10% D20. All NMR data were acquired on a Bruker Avance II 800 MHz NMR spectrometer equipped with a sensitive cryoprobe and recorded at 25° C. The ^1H chemical shifts were referenced to 2,2-dimethyl-2-silapentane-5-sulfonate (DSS). NMR spectra were processed using NMR Pipe (Delaglio et al., 1995) and analysed using NMR View (Johnson and Blevins, 1994).

T2 sequence (P27694 whole entry): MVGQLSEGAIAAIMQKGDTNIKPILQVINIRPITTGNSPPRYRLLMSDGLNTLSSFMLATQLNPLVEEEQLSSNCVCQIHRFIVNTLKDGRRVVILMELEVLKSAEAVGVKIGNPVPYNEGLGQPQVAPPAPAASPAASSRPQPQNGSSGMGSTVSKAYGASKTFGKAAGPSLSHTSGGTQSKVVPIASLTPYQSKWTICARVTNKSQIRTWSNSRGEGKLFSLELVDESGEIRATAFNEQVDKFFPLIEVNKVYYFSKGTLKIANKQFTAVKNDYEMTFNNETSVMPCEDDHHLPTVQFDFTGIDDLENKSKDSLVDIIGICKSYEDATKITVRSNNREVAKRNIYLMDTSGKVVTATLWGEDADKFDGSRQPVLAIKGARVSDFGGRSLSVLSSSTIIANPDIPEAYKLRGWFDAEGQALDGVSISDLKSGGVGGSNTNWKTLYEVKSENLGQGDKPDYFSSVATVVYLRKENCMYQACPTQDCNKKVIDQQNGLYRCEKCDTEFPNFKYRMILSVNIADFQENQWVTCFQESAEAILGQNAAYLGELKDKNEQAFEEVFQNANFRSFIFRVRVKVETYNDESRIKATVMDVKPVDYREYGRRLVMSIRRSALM
T2 sequence (P15927 whole entry): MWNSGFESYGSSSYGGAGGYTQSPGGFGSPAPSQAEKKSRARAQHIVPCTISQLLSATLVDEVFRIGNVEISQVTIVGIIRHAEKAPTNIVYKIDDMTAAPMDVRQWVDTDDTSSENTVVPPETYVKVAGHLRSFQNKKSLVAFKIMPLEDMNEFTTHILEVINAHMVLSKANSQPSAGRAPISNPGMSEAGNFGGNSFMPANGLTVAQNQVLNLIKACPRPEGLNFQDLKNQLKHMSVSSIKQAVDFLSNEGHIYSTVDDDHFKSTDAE
T2 sequence (P35244 whole entry): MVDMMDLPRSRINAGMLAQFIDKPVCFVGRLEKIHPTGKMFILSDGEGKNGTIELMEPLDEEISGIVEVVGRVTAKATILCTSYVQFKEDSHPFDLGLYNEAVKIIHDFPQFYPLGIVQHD
T1 sequence (P27694 whole entry): as the sequence (P27694 whole entry) above
T1 sequence (P15927 whole entry): as the sequence (P15927 whole entry) above
T1 sequence (P35244 whole entry): as the sequence (P35244 whole entry) above

SMILES	Effect on the RPA-ssDNA interaction [1]	Reduction in DSBs compared with siRNA depletion of RAD52 ([2]; 500 nM compound, HU + UCN01)	IC50 for decrease of mean tail moment following HU treatment, in words [2]	Concentration sufficient to achieve the same level in DSB reduction as siRNA treatment ([2]; HU + UCN01)	DSB formation in MUS81-depleted cells ([2]; replication stress induced by CHK1 inhibition)	Binding to RPA by WaterLOGSY [3]	DSB formation in RAD52-depleted cells ([2]; RAD52 siRNA plus compound)
Oc1cc(O)c2c(c1)O[C@H](c1cc(O)c(O)c(O)c1)[C@H](O)C2 [Compound ‘1’, (−)-Epigallocatechin]	nor interferes with the RPA-ssDNA interaction	same effect of reduction in DSBs as siRNA depletion of RAD52	mid nanomolar to low micromolar	1 µM	appearance of the MUS81-independent DSBs	neither binds to RPA	–
O=C(O[C@@H]1Cc2c(O)cc(O)cc2O[C@@H]1c1cc(O)c(O)c(O)c1)c1cc(O)c(O)c(O)c1 [Compound 6, Epigallocatechin-3-monogallate]	does not interfere with the RPA-ssDNA interaction	–	mid nanomolar to low micromolar	higher concentration	–	binds to RPA	failed to further decrease the formation of DNA breaks
